Data as given in ChEMBL document CHEMBL1121778, “5,7-Dihydroxy-2-aminotetralin derivatives: synthesis and assessment of dopaminergic and adrenergic actions” (1981).
Active and inactive are the calls of the source. The calls are words filed in the database; no cut-off is given here.

Tests used:
Felis catus [1] = assay: change in heart rate(beats/min) of the cat on intravenous administration 0.038 umol/kg of the compound.; format: functional
Felis catus [2] = assay: Compound was tested for the inhibition of cat cardioaccelerator nerve stimulation; Inactive at 2 umol/kg iv; format: functional, organism-based
Felis catus [3] = assay: %change in arterial pressure of the cat on intravenous administration of 0.38 umol/kg of the compound.; format: functional, Artery
Canis familiaris [4] = assay: Compound was tested for emesis(active expulsion of fluid or solid matter)in dog at 2 umol/kg sc; No emesis produced; format: functional, organism-based; conditions: Canis lupus familiaris
Felis catus [5] = assay: %change in arterial pressure of the cat on intravenous administration 0.115 umol/kg of the compound.; format: functional, Artery
Felis catus [6] = assay: change in heart rate(beats/min) of the cat on intravenous administration of 0.38 umol/kg of the compound.; format: functional
Felis catus [7] = assay: %change in arterial pressure of the cat on intravenous administration of 0.038 umol/kg the compound.; format: functional, Artery
Canis familiaris [8] = assay: Compound was tested for increase in renal blood flow in dog anesthetized with sodium pentobarbitol (30 mg/kg, iv) and systemic blood pressure and heart rate were recorded; Inactive at 2 umol/kg; format: functional, organism-based; conditions: Canis lupus familiaris
Felis catus [9] = assay: change in heart rate(beats/min) of the cat on intravenous administration of 0.115 umol/kg of the compound.; format: functional
Felis catus [10] = assay: Change in heart rate(beats/min) of the cat on intravenous administration of 0.36 umol/kg the compound.; format: functional
Felis catus [11] = assay: Percentage change in arterial pressure of the cat on intravenous administration of 0.36 umol/kg of the compound.; format: functional, Artery
Felis catus [12] = assay: Change in heart rate(beats/min) of the cat on intravenous administration of 1.09 umol/kg of the compound.; format: functional
Felis catus [13] = assay: Percentage change in arterial pressure of the cat on intravenous administration of 1.09 umol/kg of uM/kg of the compound.; format: functional, Artery
Felis catus [14] = assay: Change in heart rate(beats/min) of the cat on intravenous administration of 0.003 umol/kg of the compound.; format: functional
Felis catus [15] = assay: Change in heart rate(beats/min) of the cat on intravenous administration of 0.033 umol/kg of the compound.; format: functional
Felis catus [16] = species on record: Felis catus; assay: Potency relative to apomorphine.; format: functional
Felis catus [17] = assay: Percentage change in arterial pressure of the cat on intravenous administration of 0.003 umol/kg of the compound.; format: functional, Artery
Felis catus [18] = assay: Percentage change in arterial pressure of the cat on intravenous administration of 0.009 umol/kg of the compound.; format: functional, Artery
Felis catus [19] = assay: Change in heart rate(beats/min) of the cat on intravenous administration of 0.009 umol/kg of the compound.; format: functional
Felis catus [20] = assay: Percentage change in arterial pressure of the cat on intravenous administration of 0.033 umol/kg of the compound.; format: functional, Artery
Felis catus [21] = species on record: Felis catus; assay: Compound was tested for the inhibition of cat cardioaccelerator nerve stimulation; format: functional
Felis catus [22] = assay: Percentage change in arterial pressure of the cat on intravenous administration of 0.01 umol/kg of the compound.; format: functional, Artery
Felis catus [23] = assay: Change in heart rate(beats/min) of the cat on intravenous administration of 0.10 umol/kg of the compound.; format: functional
Felis catus [24] = assay: Change in heart rate(beats/min) of the cat on intravenous administration of 0.01 umol/kg of the compound.; format: functional
Felis catus [25] = assay: Percentage change in arterial pressure of the cat on intravenous administration of 0.10 umol/kg of the compound.; format: functional, Artery
Canis familiaris [26] = species on record: Canis familiaris; assay: Compound was tested for emesis(active expulsion of fluid or solid matter)in dog; format: functional; conditions: Canis lupus familiaris
Felis catus [27] = species on record: Felis catus; assay: Compound was tested for the inhibition of cat cardioaccelerator nerve stimulation, activity expressed as ED50.; format: functional
Felis catus [28] = assay: Change in heart rate(beats/min) of the cat on intravenous administration at 0.008 umol/kg; format: functional
Canis familiaris [29] = species on record: Canis familiaris; assay: Compound was tested for emesis(active expulsion of fluid or solid matter)in dog, activity expressed as ED50.; format: functional; conditions: Canis lupus familiaris
Felis catus [30] = assay: Percentage change in arterial pressure of the cat on intravenous administration of 0.016 umol/kg of the compound.; format: functional, Artery
Felis catus [31] = assay: Percentage change in arterial pressure of the cat on intravenous administration of 0.032 umol/kg of the compound.; format: functional, Artery
Felis catus [32] = species on record: Felis catus; assay: Compound was tested for the inhibition of cat cardioaccelerator nerve stimulation,; format: functional
Felis catus [33] = assay: Change in heart rate(beats/min) of the cat on intravenous administration of 0.016 umol/kg of the compound.; format: functional
Felis catus [34] = assay: Percentage change in arterial pressure of the cat on intravenous administration at 0.008 umol/kg; format: functional, Artery
Felis catus [35] = assay: Compound was tested for the inhibition of cat cardioaccelerator nerve stimulation; […]; format: functional, organism-based
Felis catus [36] = assay: Percentage change in arterial pressure of the cat on intravenous administration of 0.99 umol/kg of the compound.; format: functional, Artery
Felis catus [37] = assay: Change in heart rate(beats/min) of the cat on intravenous administration of 0.99 umol/kg of the compound.; format: functional
Felis catus [38] = assay: Change in heart rate(beats/min) of the cat on intravenous administration of 0.33 umol/kg of the compound.; format: functional
Felis catus [39] = assay: Percentage change in arterial pressure of the cat on intravenous administration of 0.11 umol/kg of the compound.; format: functional, Artery
Felis catus [40] = assay: Change in heart rate(beats/min) of the cat on intravenous administration of 0.11 umol/kg of the compound.; format: functional
Felis catus [41] = assay: Percentage change in arterial pressure of the cat on intravenous administration of 0.33 umol/kg of the compound.; format: functional, Artery
Felis catus [42] = assay: Percentage change in arterial pressure of the cat on intravenous administration of 0.03 umol/kg of the compound.; format: functional, Artery
Felis catus [43] = assay: Change in heart rate(beats/min) of the cat on intravenous administration of 0.1 uM/kg of the compound.; format: functional
Felis catus [44] = assay: Change in heart rate(beats/min) of the cat on intravenous administration of 0.03 umol/kg of the compound.; format: functional
Felis catus [45] = assay: Percentage change in arterial pressure of the cat on intravenous administration of 0.1 uM/kg of the compound.; format: functional, Artery

In the case of Br.NC1CCc2c(O)cc(O)cc2C1 (centres undefined), the Heart rate (Felis catus [1]) is reported as 0 beats min-1, the ED50 (Felis catus [2]) is reported as “inactive” and the Change (Felis catus [3]) is reported as 30.5%. The ED50 (Canis familiaris [4]) was “No emesis produced”, the Change (Felis catus [5]) was 21.6% and the Heart rate (Felis catus [6]) was 17.6 beats min-1. For the same molecule, the Change (Felis catus [7]) was 19.7%, the Increase (Canis familiaris [8]) was “inactive” and the Heart rate (Felis catus [9]) was 3.6 beats min-1.

For Br.CNC1CCc2c(O)cc(O)cc2C1 (centres undefined), the Heart rate (Felis catus [10]) was 26.7 beats min-1, the ED50 (Felis catus [2]) was “inactive” and the ED50 (Canis familiaris [4]) was “No emesis produced”. It also gave a Change (Felis catus [11]) of 49.7%, a Heart rate (Felis catus [12]) of 44 beats min-1 and a Change (Felis catus [13]) of 84.2%. The Increase (Canis familiaris [8]) was “inactive”.

Br.CCN(CC)C1CCc2c(O)cc(O)cc2C1 (centres undefined) gave a Heart rate (Felis catus [14]) of -2.1 beats min-1, a Heart rate (Felis catus [15]) of -25 beats min-1 and a Relative potency (Felis catus [16]) of 1.4. The Change (Felis catus [17]) was -8.7%, the Change (Felis catus [18]) was -23% and the Heart rate (Felis catus [19]) was -23 beats min-1. The Increase (Canis familiaris [8]) was “inactive”, the Change (Felis catus [20]) was -25% and the ED50 (Felis catus [21]) was 0.024 µmol/kg.

With Br.CCNC1CCc2c(O)cc(O)cc2C1 (centres undefined) the Change (Felis catus [22]) was -6.3%, the Heart rate (Felis catus [15]) was -10.6 beats min-1 and the Relative potency (Felis catus [16]) was 1.04. For the same molecule, the Heart rate (Felis catus [23]) was -6 beats min-1, the Heart rate (Felis catus [24]) was -6.6 beats min-1 and the Change (Felis catus [25]) was -19.6%. The Increase (Canis familiaris [8]) was “inactive”, the ED50 (Canis familiaris [26]) was 0.36 µmol/kg and the Change (Felis catus [20]) was -18.5%. For the same molecule, the ED50 (Felis catus [21]) was 0.04 µmol/kg.

For Br.CCCN(CCC)C1CCc2c(O)cc(O)cc2C1 (centres undefined), the Heart rate (Felis catus [14]) was -3.6 beats min-1, the Heart rate (Felis catus [15]) was -5.6 beats min-1 and the Relative potency (Felis catus [16]) was 0.95. The Change (Felis catus [17]) was -12.2%, the Change (Felis catus [18]) was -17.2% and the Heart rate (Felis catus [19]) was -4.8 beats min-1. The ED50 (Felis catus [27]) was 0.035 µmol/kg, the Increase (Canis familiaris [8]) was “inactive” and the Change (Felis catus [20]) was -27.2%.

In the case of CN1CCc2cccc3c2[C@H]1Cc1ccc(O)c(O)c1-3 [APOMORPHINE], the Heart rate (Felis catus [28]) is reported as -4.3 beats min-1, the ED50 (Canis familiaris [29]) is reported as 0.142 µmol/kg and the Relative potency (Felis catus [16]) is reported as 1. It also gave a Change (Felis catus [30]) of -11.5%, a Change (Felis catus [31]) of -18.2% and an ED50 (Felis catus [32]) of 0.022 µmol/kg. The Heart rate (Felis catus [33]) was -6.5 beats min-1 and the Change (Felis catus [34]) was -9.9%.

For Br.CC(C)NC1CCc2c(O)cc(O)cc2C1 (centres undefined), the ED50 (Felis catus [35]) was “inactive”, the Change (Felis catus [36]) was 25.2% and the ED50 (Canis familiaris [4]) was “inactive”. It also gave a Heart rate (Felis catus [37]) of 14.4 beats min-1, a Heart rate (Felis catus [38]) of 7.7 beats min-1 and a Change (Felis catus [39]) of 16.9%. The Increase (Canis familiaris [8]) was “inactive”, the Heart rate (Felis catus [40]) was 3.2 beats min-1 and the Change (Felis catus [41]) was 19.7%.

For Br.CN(C)C1CCc2c(O)cc(O)cc2C1 (centres undefined), the Change (Felis catus [22]) was 4.1%, the Relative potency (Felis catus [16]) was 1.45 and the Heart rate (Felis catus [24]) was 0 beats min-1. It also gave a Change (Felis catus [42]) of 8%, a Heart rate (Felis catus [43]) of 12.8 beats min-1 and a Heart rate (Felis catus [44]) of 0.6 beats min-1. The Change (Felis catus [45]) was 23.2% and the ED50 (Felis catus [21]) was 0.021 µmol/kg.
